In patent US11498899B2, “Nitrone herbicides” (FMC Corporation, priority 2016, dated 2022):

Experiments:
[1] = test system: barnyardgrass (Echinochloa crus-galli); assay: Test B flooded paddy test, visual rating 0-100; conditions: Flood, 250 g ai/ha, applied to paddy water, rated after 13 to 15 days
kochia (Kochia scoparia) [2] = assay: Test A postemergence, visual injury rating 0-100; assay type: in vivo; conditions: 0 to 100 scale
[3] = test system: ryegrass, Italian (Italian ryegrass, Lolium multiflorum); assay: Test A postemergence, visual injury rating 0-100; assay type: in vivo; conditions: 0 to 100 scale
[4] = test system: blackgrass (Alopecurus myosuroides); assay: Test A postemergence, visual injury rating 0-100; assay type: in vivo; conditions: 0 to 100 scale
[5] = test system: ragweed (common ragweed, Ambrosia elatior); assay: Test A postemergence, visual injury rating 0-100; assay type: in vivo; conditions: 0 to 100 scale
[6] = test system: pigweed (Amaranthus retroflexus); assay: Test A postemergence, visual injury rating 0-100; assay type: in vivo; conditions: 0 to 100 scale
[7] = test system: barnyardgrass (Echinochloa crus-galli); assay: Test A postemergence, visual injury rating 0-100; assay type: in vivo; conditions: 0 to 100 scale
corn (Zea mays) = assay: Test A postemergence, visual injury rating 0-100; assay type: in vivo; conditions: 0 to 100 scale
[8] = test system: foxtail, green (green foxtail, Setaria viridis); assay: Test A postemergence, visual injury rating 0-100; assay type: in vivo; conditions: 0 to 100 scale
[9] = test system: wheat (Triticum aestivum); assay: Test A postemergence, visual injury rating 0-100; assay type: in vivo; conditions: 0 to 100 scale
[10] = test system: ducksalad (Heteranthera limosa); assay: Test B flooded paddy test, visual rating 0-100; conditions: Flood, 250 g ai/ha, applied to paddy water, rated after 13 to 15 days
[11] = test system: barnyardgrass (Echinochloa crus-galli); assay: Test A preemergence, visual injury rating 0-100 (0 no effect, 100 complete control); assay type: in vivo; conditions: for Barnyardgrass plant response rating (0 to 100 scale): 125 g ai/ha; for Barnyardgrass plant response rating: 500 g ai/ha, 0 to 100 scale
rice (Oryza sativa) = assay: Test B flooded paddy test, visual rating 0-100 (0 no effect, 100 complete control); conditions: Flood, 250 g ai/ha, applied to paddy water, rated after 13 to 15 days
kochia (Kochia scoparia) [12] = assay: Test A preemergence, visual injury rating 0-100; assay type: in vivo
[13] = test system: ryegrass, Italian (Italian ryegrass, Lolium multiflorum); assay: Test A preemergence, visual injury rating 0-100; assay type: in vivo
[14] = test system: ragweed (common ragweed, Ambrosia elatior); assay: Test A preemergence, visual injury rating 0-100; assay type: in vivo
[15] = test system: pigweed (Amaranthus retroflexus); assay: Test A preemergence, visual injury rating 0-100; assay type: in vivo
[16] = test system: foxtail, green (green foxtail, Setaria viridis); assay: Test A preemergence, visual injury rating 0-100; assay type: in vivo

CC1=[N+]([O-])C(C(=O)Nc2ccccc2[S+](C)[O-])C(c2ccc(C(F)(F)F)cc2)C1 (racemic) [Compound 44]
70: Barnyardgrass plant response rating [11]
20: Blackgrass plant response rating ([4]; 500 g ai/ha) | Pigweed plant response rating ([6]; 500 g ai/ha) | Pigweed plant response rating (0 to 100 scale) ([15]; 125 g ai/ha)
30: Foxtail, Green plant response rating ([8]; 500 g ai/ha)
90: Pigweed plant response rating (0 to 100 scale) ([15]; 500 g ai/ha)
100: Foxtail, Green plant response rating (0 to 100 scale) ([16]; 500 g ai/ha)
80: Ragweed plant response rating (0 to 100 scale) ([14]; 500 g ai/ha)
10: Kochia plant response rating (kochia (Kochia scoparia) [2]; 500 g ai/ha)
0: Barnyardgrass plant response rating (0 to 100 scale) [1] | Kochia plant response rating (kochia (Kochia scoparia) [2]; 125 g ai/ha) | Ryegrass, Italian plant response rating ([3]; 125 g ai/ha) | Ryegrass, Italian plant response rating ([3]; 500 g ai/ha) | Blackgrass plant response rating ([4]; 125 g ai/ha) | Ragweed plant response rating ([5]; 125 g ai/ha) | Ragweed plant response rating ([5]; 500 g ai/ha) | Pigweed plant response rating ([6]; 125 g ai/ha) | Barnyardgrass plant response rating ([7]; 125 g ai/ha) | Barnyardgrass plant response rating ([7]; 500 g ai/ha) | Corn plant response rating (corn (Zea mays); 125 g ai/ha) | Corn plant response rating (corn (Zea mays); 500 g ai/ha) | Foxtail, Green plant response rating ([8]; 125 g ai/ha) | Wheat plant response rating ([9]; 125 g ai/ha) | Wheat plant response rating ([9]; 500 g ai/ha) | Ducksalad plant response rating (0 to 100 scale) [10] | Barnyardgrass plant response rating (0 to 100 scale) [11] | Rice plant response rating (0 to 100 scale) (rice (Oryza sativa)) | Kochia plant response rating (0 to 100 scale) (kochia (Kochia scoparia) [12]; 125 g ai/ha) | Kochia plant response rating (0 to 100 scale) (kochia (Kochia scoparia) [12]; 500 g ai/ha) | Ryegrass, Italian plant response rating (0 to 100 scale) ([13]; 125 g ai/ha) | Ryegrass, Italian plant response rating (0 to 100 scale) ([13]; 500 g ai/ha) | Ragweed plant response rating (0 to 100 scale) ([14]; 125 g ai/ha) | Foxtail, Green plant response rating (0 to 100 scale) ([16]; 125 g ai/ha)

CC1=[N+]([O-])C(C(=O)Nc2ccc(F)cc2F)C(c2ccc(C(F)(F)F)cc2)C1 (racemic) [Compound 46]
50: Pigweed plant response rating (0 to 100 scale) ([15]; 125 g ai/ha)
90: Barnyardgrass plant response rating ([7]; 500 g ai/ha) | Foxtail, Green plant response rating ([8]; 500 g ai/ha) | Kochia plant response rating (0 to 100 scale) (kochia (Kochia scoparia) [12]; 500 g ai/ha) | Ragweed plant response rating (0 to 100 scale) ([14]; 500 g ai/ha) | Pigweed plant response rating (0 to 100 scale) ([15]; 500 g ai/ha) | Foxtail, Green plant response rating (0 to 100 scale) ([16]; 125 g ai/ha)
10: Barnyardgrass plant response rating ([7]; 125 g ai/ha)
70: Blackgrass plant response rating ([4]; 500 g ai/ha) | Barnyardgrass plant response rating (0 to 100 scale) [11]
20: Blackgrass plant response rating ([4]; 125 g ai/ha) | Wheat plant response rating ([9]; 500 g ai/ha) | Rice plant response rating (0 to 100 scale) (rice (Oryza sativa))
30: Ragweed plant response rating ([5]; 500 g ai/ha) | Pigweed plant response rating ([6]; 500 g ai/ha)
40: Barnyardgrass plant response rating (0 to 100 scale) [1] | Kochia plant response rating (kochia (Kochia scoparia) [2]; 500 g ai/ha) | Ryegrass, Italian plant response rating ([3]; 500 g ai/ha) | Corn plant response rating (corn (Zea mays); 500 g ai/ha) | Foxtail, Green plant response rating ([8]; 125 g ai/ha)
0: Kochia plant response rating (kochia (Kochia scoparia) [2]; 125 g ai/ha) | Ryegrass, Italian plant response rating ([3]; 125 g ai/ha) | Ragweed plant response rating ([5]; 125 g ai/ha) | Pigweed plant response rating ([6]; 125 g ai/ha) | Corn plant response rating (corn (Zea mays); 125 g ai/ha) | Wheat plant response rating ([9]; 125 g ai/ha) | Kochia plant response rating (0 to 100 scale) (kochia (Kochia scoparia) [12]; 125 g ai/ha) | Ryegrass, Italian plant response rating (0 to 100 scale) ([13]; 125 g ai/ha) | Ryegrass, Italian plant response rating (0 to 100 scale) ([13]; 500 g ai/ha) | Ragweed plant response rating (0 to 100 scale) ([14]; 125 g ai/ha)
100: Ducksalad plant response rating (0 to 100 scale) [10] | Barnyardgrass plant response rating [11] | Foxtail, Green plant response rating (0 to 100 scale) ([16]; 500 g ai/ha)

CC1=[N+]([O-])[C@H](C(=O)Nc2cccc(F)c2F)[C@@H](c2ccc3c(c2)OC(F)(F)O3)C1 (relative stereo) [Compound 25, rel-(2S,3R)-3-(2,2-Difluoro-1,3-benzodioxol-5-yl)-N-(2,3-difluorophenyl)-3,4-dihydro-5-methyl-2H-pyrrole-2-carboxamide 1-oxide]
50: Ryegrass, Italian plant response rating ([3]; 500 g ai/ha) | Ragweed plant response rating ([5]; 500 g ai/ha) | Kochia plant response rating (0 to 100 scale) (kochia (Kochia scoparia) [12]; 125 g ai/ha) | Ryegrass, Italian plant response rating ([13]; 500 g ai/ha, 0 to 100 scale) | Ragweed plant response rating (0 to 100 scale) ([14]; 125 g ai/ha)
75: Barnyardgrass plant response rating (0 to 100 scale) [1]
0: Rice plant response rating (0 to 100 scale) (rice (Oryza sativa))
80: Corn plant response rating (corn (Zea mays); 500 g ai/ha) | Kochia plant response rating (kochia (Kochia scoparia) [12]; 500 g ai/ha, 0 to 100 scale) | Ryegrass, Italian plant response rating (0 to 100 scale) ([13]; 125 g ai/ha) | Pigweed plant response rating (0 to 100 scale) ([15]; 125 g ai/ha)
40: Ryegrass, Italian plant response rating ([3]; 125 g ai/ha) | Blackgrass plant response rating ([4]; 500 g ai/ha) | Ragweed plant response rating ([5]; 125 g ai/ha) | Foxtail, Green plant response rating ([8]; 125 g ai/ha)
20: Blackgrass plant response rating ([4]; 125 g ai/ha)
70: Pigweed plant response rating ([6]; 500 g ai/ha) | Barnyardgrass plant response rating ([7]; 125 g ai/ha) | Wheat plant response rating ([9]; 125 g ai/ha)
90: Barnyardgrass plant response rating ([7]; 500 g ai/ha) | Foxtail, Green plant response rating ([8]; 500 g ai/ha) | Wheat plant response rating ([9]; 500 g ai/ha) | Ducksalad plant response rating (0 to 100 scale) [10] | Barnyardgrass plant response rating (0 to 100 scale) [11] | Barnyardgrass plant response rating [11] | Pigweed plant response rating ([15]; 500 g ai/ha, 0 to 100 scale) | Foxtail, Green plant response rating (0 to 100 scale) ([16]; 125 g ai/ha) | Foxtail, Green plant response rating ([16]; 500 g ai/ha, 0 to 100 scale)
60: Kochia plant response rating (kochia (Kochia scoparia) [2]; 125 g ai/ha) | Kochia plant response rating (kochia (Kochia scoparia) [2]; 500 g ai/ha) | Pigweed plant response rating ([6]; 125 g ai/ha) | Corn plant response rating (corn (Zea mays); 125 g ai/ha)
100: Ragweed plant response rating ([14]; 500 g ai/ha, 0 to 100 scale)

CC1=[N+]([O-])[C@H](C(=O)Nc2ccc(F)nc2F)[C@@H](c2ccc(C(F)(F)F)cc2)C1 (relative stereo) [Compound 37, rel-(2S,3R)—N-(2,6-Difluoro-3-pyridinyl)-3,4-dihydro-5-methyl-3-[4-(trifluoromethyl)phenyl]-2H-pyrrole-2-carboxamide 1-oxide]
10: Kochia plant response rating (kochia (Kochia scoparia) [2]; 125 g ai/ha) | Wheat plant response rating ([9]; 125 g ai/ha)
45: Barnyardgrass plant response rating (0 to 100 scale) [1]
70: Kochia plant response rating (kochia (Kochia scoparia) [2]; 500 g ai/ha) | Pigweed plant response rating ([6]; 500 g ai/ha) | Barnyardgrass plant response rating ([7]; 500 g ai/ha) | Kochia plant response rating (0 to 100 scale) (kochia (Kochia scoparia) [12]; 125 g ai/ha)
40: Ryegrass, Italian plant response rating ([3]; 500 g ai/ha) | Barnyardgrass plant response rating ([7]; 125 g ai/ha)
100: Ducksalad plant response rating (0 to 100 scale) [10] | Barnyardgrass plant response rating [11] | Ragweed plant response rating (0 to 100 scale) ([14]; 500 g ai/ha) | Pigweed plant response rating (0 to 100 scale) ([15]; 500 g ai/ha) | Foxtail, Green plant response rating (0 to 100 scale) ([16]; 500 g ai/ha)
60: Ragweed plant response rating ([5]; 500 g ai/ha) | Foxtail, Green plant response rating ([8]; 125 g ai/ha) | Wheat plant response rating ([9]; 500 g ai/ha)
50: Corn plant response rating (corn (Zea mays); 500 g ai/ha)
0: Ryegrass, Italian plant response rating ([3]; 125 g ai/ha) | Ragweed plant response rating ([5]; 125 g ai/ha) | Pigweed plant response rating ([6]; 125 g ai/ha) | Rice plant response rating (0 to 100 scale) (rice (Oryza sativa)) | Ryegrass, Italian plant response rating (0 to 100 scale) ([13]; 125 g ai/ha) | Ryegrass, Italian plant response rating (0 to 100 scale) ([13]; 500 g ai/ha)
90: Blackgrass plant response rating ([4]; 500 g ai/ha) | Foxtail, Green plant response rating ([8]; 500 g ai/ha) | Barnyardgrass plant response rating (0 to 100 scale) [11] | Kochia plant response rating (0 to 100 scale) (kochia (Kochia scoparia) [12]; 500 g ai/ha) | Ragweed plant response rating (0 to 100 scale) ([14]; 125 g ai/ha) | Foxtail, Green plant response rating (0 to 100 scale) ([16]; 125 g ai/ha)
20: Blackgrass plant response rating ([4]; 125 g ai/ha) | Corn plant response rating (corn (Zea mays); 125 g ai/ha)
80: Pigweed plant response rating (0 to 100 scale) ([15]; 125 g ai/ha)
